The values below come from ChEMBL document CHEMBL1201862, “PubChem BioAssay data set” (2004).

Type in all cases: functional
Assay [1] has as its target Tyrosine-protein kinase receptor TYRO3 (Homo sapiens, UniProt Q06418).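 Also: TYRO3 value obtained as one member of a kinome-wide profiling panel.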
Assay [2] deals with High affinity nerve growth factor receptor (Homo sapiens, UniProt P04629).
The target in assay [3] is Leukocyte tyrosine kinase receptor (Homo sapiens, UniProt P29376). In words: Navigating the Kinome. Panel member name: LTK.
Assay [4] deals with BDNF/NT-3 growth factors receptor (Homo sapiens, UniProt Q16620).
Assay [5] deals with Dual specificity protein kinase CLK4 (Homo sapiens, UniProt Q9HAZ1).
Assay [6] deals with Dual specificity tyrosine-phosphorylation-regulated kinase 1B (Homo sapiens, UniProt Q9Y463). In words: Navigating the Kinome. Panel member name: DYRK1B.
The target of assay [7] is Dual specificity tyrosine-phosphorylation-regulated kinase 1A (Homo sapiens, UniProt Q13627).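 Also: measured against DYRK1A as one member of a broad kinome profiling panel.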
The next assay deals with LIM domain kinase 1 (Homo sapiens, UniProt P53667). In words: Navigating the Kinome. Panel member name: LIMK1.
The target in assay [8] is Serine/threonine-protein kinase TAO1 (Homo sapiens, UniProt Q7L7X3).
The target in assay [9] is Protein kinase C theta type (Homo sapiens, UniProt Q04759). In words: Navigating the Kinome. Panel member name: PRKCQ.
In assay [10] the target is Cyclin-dependent kinase 9 (Homo sapiens, UniProt P50750).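 Also: value from the CDK9 entry of a kinome-spanning kinase panel.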
For assay [11], the target named is Inhibitor of nuclear factor kappa-B kinase subunit epsilon (Homo sapiens, UniProt Q14164). In words: Navigating the Kinome. Panel member name: IKBKE.
Assay [12] deals with Macrophage colony-stimulating factor 1 receptor (Homo sapiens, UniProt P07333).
The target in assay [13] is Glycogen synthase kinase-3 alpha (Homo sapiens, UniProt P49840).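 Also: GSK3A result taken from a broad kinome-wide kinase panel.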
Assay [14] has as its target Vascular endothelial growth factor receptor 2 (Homo sapiens, UniProt P35968).
Assay [15] concerns the target Casein kinase I isoform alpha (Homo sapiens, UniProt P48729).
Assay [16] deals with Platelet-derived growth factor receptor beta (Homo sapiens, UniProt P09619).
Assay [17] concerns the target Serine/threonine-protein kinase Chk1 (Homo sapiens, UniProt O14757).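 Also: measured as one member of a kinome-wide kinase profiling panel.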
The target in assay [18] is cAMP-dependent protein kinase catalytic subunit alpha (Homo sapiens, UniProt P17612).
A further assay has as its target Aurora kinase A (Homo sapiens, UniProt O14965).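 Also: value from the Navigating the Kinome kinase panel profiling, panel entry STK6.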
Assay [19] addresses Death-associated protein kinase 3 (Homo sapiens, UniProt O43293).

The structures appear in SMILES notation. The source made the active and inactive calls.

Chain of Dual specificity protein kinase CLK4 (Q9HAZ1 whole entry): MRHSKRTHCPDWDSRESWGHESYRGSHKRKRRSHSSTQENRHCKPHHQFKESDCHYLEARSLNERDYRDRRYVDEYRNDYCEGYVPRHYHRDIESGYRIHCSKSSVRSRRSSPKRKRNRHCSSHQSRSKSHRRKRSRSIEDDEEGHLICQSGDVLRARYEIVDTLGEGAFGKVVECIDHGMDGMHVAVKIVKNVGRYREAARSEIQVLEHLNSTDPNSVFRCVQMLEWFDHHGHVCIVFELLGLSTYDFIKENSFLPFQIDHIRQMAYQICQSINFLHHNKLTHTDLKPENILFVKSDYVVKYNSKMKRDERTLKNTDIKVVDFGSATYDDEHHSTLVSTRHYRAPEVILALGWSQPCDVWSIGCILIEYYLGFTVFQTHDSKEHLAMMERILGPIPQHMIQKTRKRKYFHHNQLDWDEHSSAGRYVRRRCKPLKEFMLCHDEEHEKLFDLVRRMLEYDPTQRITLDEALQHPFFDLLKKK
Chain of Macrophage colony-stimulating factor 1 receptor (P07333 whole entry): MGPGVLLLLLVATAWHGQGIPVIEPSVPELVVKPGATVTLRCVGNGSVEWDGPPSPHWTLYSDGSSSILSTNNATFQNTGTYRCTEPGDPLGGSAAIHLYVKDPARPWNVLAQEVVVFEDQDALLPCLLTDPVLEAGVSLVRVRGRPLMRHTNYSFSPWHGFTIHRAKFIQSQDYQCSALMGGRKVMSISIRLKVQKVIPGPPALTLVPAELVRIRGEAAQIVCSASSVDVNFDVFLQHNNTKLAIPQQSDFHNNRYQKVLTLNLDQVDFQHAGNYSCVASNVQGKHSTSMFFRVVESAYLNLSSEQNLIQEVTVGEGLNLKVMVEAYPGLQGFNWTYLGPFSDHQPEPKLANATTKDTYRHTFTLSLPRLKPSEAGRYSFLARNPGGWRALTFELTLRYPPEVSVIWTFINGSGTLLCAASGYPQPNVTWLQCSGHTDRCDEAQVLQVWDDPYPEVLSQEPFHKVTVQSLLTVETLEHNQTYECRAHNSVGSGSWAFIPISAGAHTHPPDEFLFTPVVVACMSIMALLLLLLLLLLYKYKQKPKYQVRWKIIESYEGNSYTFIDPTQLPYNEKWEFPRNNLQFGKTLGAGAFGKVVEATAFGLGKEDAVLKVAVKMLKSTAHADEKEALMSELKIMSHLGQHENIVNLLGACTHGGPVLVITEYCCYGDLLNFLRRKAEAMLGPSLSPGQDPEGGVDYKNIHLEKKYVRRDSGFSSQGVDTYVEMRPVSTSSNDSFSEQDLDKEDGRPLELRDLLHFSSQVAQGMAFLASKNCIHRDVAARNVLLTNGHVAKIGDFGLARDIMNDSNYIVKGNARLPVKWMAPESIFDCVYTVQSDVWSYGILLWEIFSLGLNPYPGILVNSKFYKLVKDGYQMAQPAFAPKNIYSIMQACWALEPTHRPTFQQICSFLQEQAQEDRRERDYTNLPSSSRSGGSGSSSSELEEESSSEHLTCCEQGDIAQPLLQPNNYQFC
Chain of Inhibitor of nuclear factor kappa-B kinase subunit epsilon (Q14164 whole entry): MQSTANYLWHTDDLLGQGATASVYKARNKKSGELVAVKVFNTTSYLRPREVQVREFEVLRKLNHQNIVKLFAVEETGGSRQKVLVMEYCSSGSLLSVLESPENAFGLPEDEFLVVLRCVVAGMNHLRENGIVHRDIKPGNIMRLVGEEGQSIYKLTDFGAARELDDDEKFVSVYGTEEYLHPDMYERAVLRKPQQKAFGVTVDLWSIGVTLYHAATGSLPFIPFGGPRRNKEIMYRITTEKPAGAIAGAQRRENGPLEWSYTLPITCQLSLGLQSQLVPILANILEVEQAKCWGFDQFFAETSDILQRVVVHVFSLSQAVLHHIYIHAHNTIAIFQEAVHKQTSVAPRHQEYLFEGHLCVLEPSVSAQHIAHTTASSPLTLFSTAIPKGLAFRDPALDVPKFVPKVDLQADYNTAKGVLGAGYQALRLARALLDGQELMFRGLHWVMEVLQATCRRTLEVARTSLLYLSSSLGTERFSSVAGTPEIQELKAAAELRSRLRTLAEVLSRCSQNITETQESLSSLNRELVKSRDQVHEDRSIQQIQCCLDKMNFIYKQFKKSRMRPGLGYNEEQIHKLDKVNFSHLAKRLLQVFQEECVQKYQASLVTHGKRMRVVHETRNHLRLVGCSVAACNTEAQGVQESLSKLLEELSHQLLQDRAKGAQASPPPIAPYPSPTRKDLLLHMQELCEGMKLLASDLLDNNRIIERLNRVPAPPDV
Chain of Platelet-derived growth factor receptor beta (P09619 whole entry): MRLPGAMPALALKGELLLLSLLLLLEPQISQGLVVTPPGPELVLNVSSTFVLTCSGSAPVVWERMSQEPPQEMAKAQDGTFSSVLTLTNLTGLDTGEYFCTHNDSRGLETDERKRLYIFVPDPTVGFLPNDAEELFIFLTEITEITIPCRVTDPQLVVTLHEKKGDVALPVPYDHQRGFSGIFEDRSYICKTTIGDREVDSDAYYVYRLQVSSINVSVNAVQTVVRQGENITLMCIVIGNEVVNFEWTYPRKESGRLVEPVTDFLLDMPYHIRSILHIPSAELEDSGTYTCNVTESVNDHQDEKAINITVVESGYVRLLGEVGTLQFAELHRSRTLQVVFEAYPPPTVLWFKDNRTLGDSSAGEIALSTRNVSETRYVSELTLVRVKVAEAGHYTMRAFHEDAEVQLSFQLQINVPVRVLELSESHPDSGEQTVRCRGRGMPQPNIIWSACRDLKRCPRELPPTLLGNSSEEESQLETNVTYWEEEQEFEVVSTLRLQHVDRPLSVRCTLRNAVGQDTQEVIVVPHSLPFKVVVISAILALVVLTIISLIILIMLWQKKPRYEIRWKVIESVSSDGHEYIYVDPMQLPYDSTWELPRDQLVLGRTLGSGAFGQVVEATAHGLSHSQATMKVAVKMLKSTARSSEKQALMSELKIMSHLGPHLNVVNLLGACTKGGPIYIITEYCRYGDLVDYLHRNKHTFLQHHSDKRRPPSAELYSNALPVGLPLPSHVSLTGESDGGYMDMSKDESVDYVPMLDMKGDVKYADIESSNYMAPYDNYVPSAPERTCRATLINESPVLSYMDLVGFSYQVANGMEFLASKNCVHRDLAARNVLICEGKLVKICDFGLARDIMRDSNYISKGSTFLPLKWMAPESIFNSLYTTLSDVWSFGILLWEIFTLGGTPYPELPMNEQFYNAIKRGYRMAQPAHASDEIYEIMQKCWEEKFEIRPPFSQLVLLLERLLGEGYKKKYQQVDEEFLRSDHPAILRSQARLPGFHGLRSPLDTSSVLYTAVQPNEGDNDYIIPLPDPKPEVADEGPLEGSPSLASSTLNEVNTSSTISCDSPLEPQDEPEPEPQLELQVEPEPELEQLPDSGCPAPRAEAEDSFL
Chain of Protein kinase C theta type (Q04759 whole entry): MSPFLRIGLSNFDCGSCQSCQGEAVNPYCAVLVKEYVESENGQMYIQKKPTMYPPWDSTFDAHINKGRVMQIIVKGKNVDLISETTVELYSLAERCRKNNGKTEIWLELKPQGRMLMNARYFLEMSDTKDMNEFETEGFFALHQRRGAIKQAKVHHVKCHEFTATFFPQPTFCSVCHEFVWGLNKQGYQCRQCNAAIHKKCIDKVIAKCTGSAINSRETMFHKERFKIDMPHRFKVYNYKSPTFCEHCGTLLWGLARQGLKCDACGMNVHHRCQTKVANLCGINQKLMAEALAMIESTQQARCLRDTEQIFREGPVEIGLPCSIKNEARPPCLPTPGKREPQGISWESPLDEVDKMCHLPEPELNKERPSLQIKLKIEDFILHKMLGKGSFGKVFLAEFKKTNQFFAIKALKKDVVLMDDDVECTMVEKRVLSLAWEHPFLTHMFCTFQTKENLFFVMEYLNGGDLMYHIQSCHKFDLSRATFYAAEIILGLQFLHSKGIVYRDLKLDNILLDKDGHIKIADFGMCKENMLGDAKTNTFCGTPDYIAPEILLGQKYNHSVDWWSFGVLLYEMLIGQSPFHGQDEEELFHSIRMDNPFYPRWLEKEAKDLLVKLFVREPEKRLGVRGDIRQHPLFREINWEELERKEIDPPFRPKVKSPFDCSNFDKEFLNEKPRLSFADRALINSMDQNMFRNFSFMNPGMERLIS
Chain of Serine/threonine-protein kinase Chk1 (O14757 whole entry): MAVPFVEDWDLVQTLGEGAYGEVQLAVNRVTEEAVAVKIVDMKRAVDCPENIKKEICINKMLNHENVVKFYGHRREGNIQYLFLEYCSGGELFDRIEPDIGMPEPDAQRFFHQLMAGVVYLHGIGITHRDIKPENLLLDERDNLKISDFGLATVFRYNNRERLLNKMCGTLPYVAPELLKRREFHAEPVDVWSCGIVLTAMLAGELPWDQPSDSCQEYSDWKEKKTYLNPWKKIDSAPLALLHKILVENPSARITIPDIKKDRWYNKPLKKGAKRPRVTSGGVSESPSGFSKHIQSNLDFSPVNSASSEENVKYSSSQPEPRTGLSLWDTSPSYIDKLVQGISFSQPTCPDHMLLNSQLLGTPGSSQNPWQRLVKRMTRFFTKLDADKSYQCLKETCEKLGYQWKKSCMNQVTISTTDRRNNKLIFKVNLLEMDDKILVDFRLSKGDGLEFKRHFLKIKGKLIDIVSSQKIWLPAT
Chain of Cyclin-dependent kinase 9 (P50750 whole entry): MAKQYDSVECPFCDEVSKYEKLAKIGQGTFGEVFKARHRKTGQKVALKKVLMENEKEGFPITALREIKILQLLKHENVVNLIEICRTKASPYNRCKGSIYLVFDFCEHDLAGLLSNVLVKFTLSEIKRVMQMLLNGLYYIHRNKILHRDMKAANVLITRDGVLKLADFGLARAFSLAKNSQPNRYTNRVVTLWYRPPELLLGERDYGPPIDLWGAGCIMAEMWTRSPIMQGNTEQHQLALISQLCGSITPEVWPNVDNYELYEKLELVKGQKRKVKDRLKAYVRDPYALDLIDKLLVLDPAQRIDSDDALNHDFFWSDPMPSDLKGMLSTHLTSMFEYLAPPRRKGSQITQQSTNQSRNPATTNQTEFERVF

As usually defined, the Ki is a dissociation constant, usually derived from enzyme kinetics or from competition with a known ligand. `Cn1c(N)nc2sccc21`: the inhibitory constant (Ki) was 79.4 µM (active) in assay [1]; 50.1 µM (active) in assay [2]; 79.4 µM (active) in assay [3]; 63.1 µM (active) in assay [4]; 20 µM (active) in assay [5].

Consider `CC(=O)n1ncc2cc(N)ccc21`, for which the inhibition constant (Ki) in [6] is 0.631 µM (active); in assay [7], > 79.4 µM (inactive); at LIM domain kinase 1, 3.16 µM (active); in [8], 6.31 µM (active); in [9], > 100 µM (inactive); in assay [10] it was > 63.1 µM (inactive). For the same compound, the Ki in assay [11] was 79.4 µM (active); in [12], > 100 µM (inactive); in assay [13], 25.1 µM (active); in assay [14], > 100 µM (inactive); in assay [15], 20 µM (active); in assay [16], > 79.4 µM (inactive). The inhibitory constant (Ki) was 2 µM (active) in [17]; > 50.1 µM (inactive) in assay [18]; 63.1 µM (active) at Aurora kinase A; 5.01 µM (active) in [19]; 0.2 µM (active) in assay [5].
